Drawing on US20260217711A1, “TRIAZOLOPYRIDINYL ETHER LINKED COMPOUNDS AS KINASE INHIBITORS” (Bristol-Myers Squibb Company, priority 2023, published 2026), this text covers IC50 for 27 compounds.

The subject of the first test is MLKL phosphorylation (pMLKL) in HT29-L23 cells. As to the kind of experiment: MLKL Phosphorylation High-Content Assay. The class given is cell-based. The note with it: Homo sapiens, 6 h, necroptosis induced with human TNFα, SMAC mimetic and Z-VAD, read-out: LE pMLKL HC IC50. The procedure:
Following 6 h incubation at 37° C. […] MLKL phosphorylation was detected using anti-MLKL (phospho […]) antibody (Abcam #ab187091) (1:1000 dilution in Blocking Buffer [PBS supplemented with 0.1% BSA]) with ON incubation at 4° C. […] Following another three cycles of washes in PBS, the microplates were sealed, and cellular images were acquired in the Cellomics ArrayScan VTI high-content imager equipped with an X1 camera. […] The image sets were analyzed using the Compartmental Analysis Bioapplication software (Cellomics). The level of MLKL phosphorylation was quantified as […].
What is called IC50 is the point on the concentration scale where inhibition reaches its midpoint. Turning to `Nc1nc2cc(-c3ccc(Cl)c(OCCC(F)C(O)c4ccc(F)cc4)c3F)ccn2n1` (single isomer, unassigned) [Example 82, 4-(3-(2-amino-[1,2,4]triazolo[1,5-a]pyridin-7-yl)-6-chloro-2-fluorophenoxy)-2-fluoro-1-(4-fluorophenyl)butan-1-ol], the IC50 was 26 nM.

The test is the same for the next values; noted with them: necroptosis induced with human TNFα, SMAC mimetic and Z-VAD, 6 h, read-out: LE pMLKL HC IC50.
For the compound `Nc1nc2cc(-c3cccc(OCCC(F)(F)C(O)c4ccc(F)cc4)c3F)ccn2n1` (single isomer, unassigned) [Example 72, 4-(3-(2-amino-[1,2,4]triazolo[1,5-a]pyridin-7-yl)-2-fluorophenoxy)-2,2-difluoro-1-(4-fluorophenyl)butan-1-ol], the half-maximal inhibitory concentration (IC50) amounted to 1 nM.
For the compound `CC(O)(c1ccc(F)cc1)C(F)(F)CCOc1c(F)ccc(-c2ccc3nc(N)nn3c2)c1F` (single isomer, unassigned) [Example 75, 5-(3-(2-amino-[1,2,4]triazolo[1,5-a]pyridin-6-yl)-2,6-difluorophenoxy)-3,3-difluoro-2-(4-fluorophenyl)pentan-2-ol], the half-maximal inhibitory concentration (IC50) came to 200 nM.
Same read-out and setting: under `CC(O)(c1ccc(F)cc1)C(F)(F)CCOc1c(F)ccc(-c2ccc3nc(N)nn3c2)c1F` (single isomer, unassigned) [Example 76, 5-(3-(2-amino-[1,2,4]triazolo[1,5-a]pyridin-6-yl)-2,6-difluorophenoxy)-3,3-difluoro-2-(4-fluorophenyl)pentan-2-ol] stands 2 nM; under `CC(O)(c1ccc(F)cc1)C(F)(F)CCOc1ccc(F)c(-c2ccn3nc(N)nc3c2)n1` (single isomer, unassigned) [Example 77, 5-((6-(2-amino-[1,2,4]triazolo[1,5-a]pyridin-7-yl)-5-fluoropyridin-2-yl)oxy)-3,3-difluoro-2-(4-fluorophenyl)pentan-2-ol], 430 nM; under `CC(O)(c1ccc(F)cc1)C(F)(F)CCOc1ccc(F)c(-c2ccn3nc(N)nc3c2)n1` (single isomer, unassigned) [Example 78, 5-((6-(2-amino-[1,2,4]triazolo[1,5-a]pyridin-7-yl)-5-fluoropyridin-2-yl)oxy)-3,3-difluoro-2-(4-fluorophenyl)pentan-2-ol], 13 nM.
Turning to `CC(O)(c1ccc(F)cc1)C(F)(F)CCOc1ccc(Cl)c(-c2ccn3nc(N)nc3c2)n1` (single isomer, unassigned) [Example 79, 5-((6-(2-amino-[1,2,4]triazolo[1,5-a]pyridin-7-yl)-5-chloropyridin-2-yl)oxy)-3,3-difluoro-2-(4-fluorophenyl)pentan-2-ol], the 50% inhibitory concentration (IC50) worked out at 160 nM.
Turning to `Nc1nc2cc(-c3ccc(Cl)c(OCCC(F)C(O)c4ccc(F)cc4)c3F)ccn2n1` (single isomer, unassigned) [Example 83, 4-(3-(2-amino-[1,2,4]triazolo[1,5-a]pyridin-7-yl)-6-chloro-2-fluorophenoxy)-2-fluoro-1-(4-fluorophenyl)butan-1-ol], the half-inhibitory concentration (IC50) came out at 26 nM.
With `Nc1nc2cc(-c3cccc(OCCC(F)C(O)c4ccc(F)cc4)c3F)ccn2n1` (single isomer, unassigned) [Example 84, 4-(3-(2-amino-[1,2,4]triazolo[1,5-a]pyridin-7-yl)-2-fluorophenoxy)-2-fluoro-1-(4-fluorophenyl)butan-1-ol], the IC50 is 3.2 nM.
On the same count and under the same terms, the same measure for `Nc1nc2cc(-c3cccc(OCCC(F)C(O)c4ccc(F)cc4)c3F)ccn2n1` (single isomer, unassigned) [Example 85, 4-(3-(2-amino-[1,2,4]triazolo[1,5-a]pyridin-7-yl)-2-fluorophenoxy)-2-fluoro-1-(4-fluorophenyl)butan-1-ol]: 0.9 nM.
The same measure, in the same setting: the same measure for `Nc1nc2cc(-c3cccc(OCCC(F)C(O)c4ccc(F)cc4)c3F)ccn2n1` (single isomer, unassigned) [Example 86, 4-(3-(2-amino-[1,2,4]triazolo[1,5-a]pyridin-7-yl)-2-fluorophenoxy)-2-fluoro-1-(4-fluorophenyl)butan-1-ol]: 17 nM; for `Nc1nc2cc(-c3cccc(OCCC(F)C(O)c4ccc(F)cc4)c3F)ccn2n1` (single isomer, unassigned) [Example 87, 4-(3-(2-amino-[1,2,4]triazolo[1,5-a]pyridin-7-yl)-2-fluorophenoxy)-2-fluoro-1-(4-fluorophenyl)butan-1-ol]: 0.4 nM.
On the same count and under the same terms, the same measure for `CC(O)(c1ccc(F)cc1)C(F)CCOc1cccc(-c2ccn3nc(N)nc3c2)c1F` (single isomer, unassigned) [Example 88, 5-(3-(2-amino-[1,2,4]triazolo[1,5-a]pyridin-7-yl)-2-fluorophenoxy)-3-fluoro-2-(4-fluorophenyl)pentan-2-ol]: 13 nM; for `CC(O)(c1ccc(F)cc1)C(F)CCOc1cccc(-c2ccn3nc(N)nc3c2)c1F` (single isomer, unassigned) [Example 89, 5-(3-(2-amino-[1,2,4]triazolo[1,5-a]pyridin-7-yl)-2-fluorophenoxy)-3-fluoro-2-(4-fluorophenyl)pentan-2-ol]: 15 nM; for `CC(O)(c1ccc(F)cc1)C(F)CCOc1cccc(-c2ccn3nc(N)nc3c2)c1F` (single isomer, unassigned) [Example 90, 5-(3-(2-amino-[1,2,4]triazolo[1,5-a]pyridin-7-yl)-2-fluorophenoxy)-3-fluoro-2-(4-fluorophenyl)pentan-2-ol]: 3 nM.
As to `CC(O)(c1ccc(F)cc1)C(F)CCOc1cccc(-c2ccn3nc(N)nc3c2)c1F` (single isomer, unassigned) [Example 91, 5-(3-(2-amino-[1,2,4]triazolo[1,5-a]pyridin-7-yl)-2-fluorophenoxy)-3-fluoro-2-(4-fluorophenyl)pentan-2-ol], the half-inhibitory concentration (IC50) came to 0.3 nM.
As to `CC(O)(c1ccc(F)cc1)C(F)CCOc1cc(-c2ccn3nc(N)nc3c2)cc(F)c1F` (single isomer, unassigned) [Example 92, 5-(5-(2-amino-[1,2,4]triazolo[1,5-a]pyridin-7-yl)-2,3-difluorophenoxy)-3-fluoro-2-(4-fluorophenyl)pentan-2-ol], the IC50 was determined as 1390 nM.
On to `CC(O)(c1ccc(F)cc1)C(F)CCOc1cc(-c2ccn3nc(N)nc3c2)cc(F)c1F` (single isomer, unassigned) [Example 93, 5-(5-(2-amino-[1,2,4]triazolo[1,5-a]pyridin-7-yl)-2,3-difluorophenoxy)-3-fluoro-2-(4-fluorophenyl)pentan-2-ol], for which the half-maximal inhibitory concentration (IC50) was found to be 140 nM.
Same read-out and setting: under `CC(O)(c1ccc(F)cc1)C(F)CCOc1c(F)ccc(-c2ccn3nc(N)nc3c2)c1F` (single isomer, unassigned) [Example 94, 5-(3-(2-amino-[1,2,4]triazolo[1,5-a]pyridin-7-yl)-2,6-difluorophenoxy)-3-fluoro-2-(4-fluorophenyl)pentan-2-ol] stands 97 nM.
Same read-out and setting: the same measure for `CC(O)(c1ccc(F)cc1)C(F)CCOc1c(F)ccc(-c2ccn3nc(N)nc3c2)c1F` (single isomer, unassigned) [Example 95, 5-(3-(2-amino-[1,2,4]triazolo[1,5-a]pyridin-7-yl)-2,6-difluorophenoxy)-3-fluoro-2-(4-fluorophenyl)pentan-2-ol]: 4 nM; for `CC(O)(c1ccc(F)cc1)C(F)CCOc1c(F)ccc(-c2ccn3nc(N)nc3c2)c1F` (single isomer, unassigned) [Example 96, 5-(3-(2-amino-[1,2,4]triazolo[1,5-a]pyridin-7-yl)-2,6-difluorophenoxy)-3-fluoro-2-(4-fluorophenyl)pentan-2-ol]: 2 nM.
On the same count and under the same terms, under `CC(O)(c1ccc(F)cc1)C(F)CCOc1c(F)ccc(-c2ccn3nc(N)nc3c2)c1F` (single isomer, unassigned) [Example 97, 5-(3-(2-amino-[1,2,4]triazolo[1,5-a]pyridin-7-yl)-2,6-difluorophenoxy)-3-fluoro-2-(4-fluorophenyl)pentan-2-ol] stands 29 nM.
In the case of `Nc1nc2cc(-c3ccc(Cl)c(OCCC(F)C(O)c4ccc(F)cc4)c3F)ccn2n1` (single isomer, unassigned) [Example 98, 4-(3-(2-amino-[1,2,4]triazolo[1,5-a]pyridin-7-yl)-6-chloro-2-fluorophenoxy)-2-fluoro-1-(4-fluorophenyl)butan-1-ol], the 50% inhibitory concentration (IC50) was 2 nM.
Still for that read-out and setting: the same measure for `Nc1nc2cc(-c3ccc(Cl)c(OCCC(F)C(O)c4ccc(F)cc4)c3F)ccn2n1` (single isomer, unassigned) [Example 99, 4-(3-(2-amino-[1,2,4]triazolo[1,5-a]pyridin-7-yl)-6-chloro-2-fluorophenoxy)-2-fluoro-1-(4-fluorophenyl)butan-1-ol]: 15 nM; for `Nc1nc2cc(-c3ccc(Cl)c(OCCC(F)C(O)c4ccc(F)cc4)c3F)ccn2n1` (single isomer, unassigned) [Example 100, 4-(3-(2-amino-[1,2,4]triazolo[1,5-a]pyridin-7-yl)-6-chloro-2-fluorophenoxy)-2-fluoro-1-(4-fluorophenyl)butan-1-ol]: 6 nM; for `Nc1nc2cc(-c3ccc(Cl)c(OCCC(F)C(O)c4ccc(F)cc4)c3F)ccn2n1` (single isomer, unassigned) [Example 101, 4-(3-(2-amino-[1,2,4]triazolo[1,5-a]pyridin-7-yl)-6-chloro-2-fluorophenoxy)-2-fluoro-1-(4-fluorophenyl)butan-1-ol]: 30 nM.
The same measure, in the same setting: the same measure for `Nc1nc2cc(-c3ccc(F)c(OCCC(F)C(O)c4ccc(F)cc4)c3F)ccn2n1` (single isomer, unassigned) [Example 102, 4-(3-(2-amino-[1,2,4]triazolo[1,5-a]pyridin-7-yl)-2,6-difluorophenoxy)-2-fluoro-1-(4-fluorophenyl)butan-1-ol]: 3 nM.
